According to ChEMBL document CHEMBL1201862, “PubChem BioAssay data set” (2004):
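48-hour exposure; five concentrations; linearly interpolated endpoints. At the GI50, growth is halved.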 Calls of active or inactive are those of the source. Rule as the data show it: active = GI50 up to about 1.1 µM and inactive = higher.

Tests used:
Experiment in all cases: inhibition of tumour cell growth, NCI panel, 48 h
UACC-62 = system: UACC-62
OVCAR-3 = system: OVCAR-3
UO-31 = system: UO-31
K562 = system: K562
ACHN = system: ACHN
SW-620 = system: SW-620
RPMI-8226 = system: RPMI-8226
NCI-H226 = system: NCI-H226
SN12C = system: SN12C
RXF 393 = system: RXF 393
HCT-116 = system: HCT-116
KM12 = system: KM12
TK-10 = system: TK-10
OVCAR-5 = system: OVCAR-5
DU-145 = system: DU-145
HOP-92 = system: HOP-92
HOP-62 = system: HOP-62
LOX IMVI = system: LOX IMVI
SR = system: SR
SK-MEL-5 = system: SK-MEL-5
MDA-MB-435 = system: MDA-MB-435
U-251 = system: U-251
Malme-3M = system: Malme-3M
SF-539 = system: SF-539
A498 = system: A498
HL-60 = system: HL-60
HT-29 = system: HT-29
UACC-257 = system: UACC-257
SF-268 = system: SF-268
OVCAR-4 = system: OVCAR-4
SNB-75 = system: SNB-75
SNB-19 = system: SNB-19
SF-295 = system: SF-295
NCI-H23 = system: NCI-H23
CAKI-1 = system: CAKI-1
IGROV-1 = system: IGROV-1
Hs-578T = system: Hs-578T
BT-549 = system: BT-549
EKVX = system: EKVX
MCF7 = system: MCF7
HCC 2998 = system: HCC 2998
PC-3 = system: PC-3
NCI-H522 = system: NCI-H522
SK-MEL-2 = system: SK-MEL-2
SK-OV-3 = system: SK-OV-3
COLO 205 = system: COLO 205
MDA-MB-231 = system: MDA-MB-231
SK-MEL-28 = system: SK-MEL-28
NCI-H460 = system: NCI-H460
M14 = system: M14
786-0 = system: 786-0
MDA-N = system: MDA-N
A549 = system: A549
NCI/ADR-RES = system: NCI/ADR-RES
CCRF-CEM = system: CCRF-CEM
MOLT-4 = system: MOLT-4
HCT-15 = system: HCT-15
OVCAR-8 = system: OVCAR-8

Structure (SMILES): C=C(Cl)/C(=C\Cl)CCC(Cl)C(C)C (centres undefined)
- GI50 (UACC-62): > 100 µM (inactive)
- GI50 (OVCAR-3): > 100 µM (inactive)
- GI50 (UO-31): > 100 µM (inactive)
- GI50 (K562): 54.3 µM (inactive)
- GI50 (ACHN): > 100 µM (inactive)
- GI50 (SW-620): 74.3 µM (inactive)
- GI50 (RPMI-8226): 65.2 µM (inactive)
- GI50 (NCI-H226): > 100 µM (inactive)
- GI50 (SN12C): > 100 µM (inactive)
- GI50 (RXF 393): > 100 µM (inactive)
- GI50 (HCT-116): > 100 µM (inactive)
- GI50 (KM12): > 100 µM (inactive)
- GI50 (TK-10): > 100 µM (inactive)
- GI50 (OVCAR-5): > 100 µM (inactive)
- GI50 (DU-145): > 100 µM (inactive)
- GI50 (HOP-92): > 100 µM (inactive)
- GI50 (HOP-62): > 100 µM (inactive)
- GI50 (LOX IMVI): 35.1 µM (inactive)
- GI50 (SR): 56.5 µM (inactive)
- GI50 (SK-MEL-5): > 100 µM (inactive)
- GI50 (MDA-MB-435): > 100 µM (inactive)
- GI50 (U-251): > 100 µM (inactive)
- GI50 (Malme-3M): > 100 µM (inactive)
- GI50 (SF-539): > 100 µM (inactive)
- GI50 (A498): > 100 µM (inactive)
- GI50 (HL-60): 56.2 µM (inactive)
- GI50 (HT-29): > 100 µM (inactive)
- GI50 (UACC-257): > 100 µM (inactive)
- GI50 (SF-268): > 100 µM (inactive)
- GI50 (OVCAR-4): > 100 µM (inactive)
- GI50 (SNB-75): > 100 µM (inactive)
- GI50 (SNB-19): > 100 µM (inactive)
- GI50 (SF-295): > 100 µM (inactive)
- GI50 (NCI-H23): > 100 µM (inactive)
- GI50 (CAKI-1): > 100 µM (inactive)
- GI50 (IGROV-1): > 100 µM (inactive)
- GI50 (Hs-578T): > 100 µM (inactive)
- GI50 (BT-549): > 100 µM (inactive)
- GI50 (EKVX): > 100 µM (inactive)
- GI50 (MCF7): > 100 µM (inactive)
- GI50 (HCC 2998): > 100 µM (inactive)
- GI50 (PC-3): > 100 µM (inactive)
- GI50 (NCI-H522): 59.4 µM (inactive)
- GI50 (SK-MEL-2): > 100 µM (inactive)
- GI50 (SK-OV-3): > 100 µM (inactive)
- GI50 (COLO 205): > 100 µM (inactive)
- GI50 (MDA-MB-231): > 100 µM (inactive)
- GI50 (SK-MEL-28): > 100 µM (inactive)
- GI50 (NCI-H460): > 100 µM (inactive)
- GI50 (M14): 84.9 µM (inactive)
- GI50 (786-0): > 100 µM (inactive)
- GI50 (MDA-N): > 100 µM (inactive)
- GI50 (A549): > 100 µM (inactive)
- GI50 (NCI/ADR-RES): > 100 µM (inactive)
- GI50 (CCRF-CEM): 41.2 µM (inactive)
- GI50 (MOLT-4): 44.2 µM (inactive)

Structure (SMILES): [N-]=[N+]=NC1C(O)C(CO)OC1n1ccc(N)nc1=O (centres undefined)
- GI50 (UACC-62): 147 µM (inactive)
- GI50 (OVCAR-3): 68.2 µM (inactive)
- GI50 (UO-31): 228 µM (inactive)
- GI50 (K562): 294 µM (inactive)
- GI50 (ACHN): 33.9 µM (inactive)
- GI50 (SW-620): 159 µM (inactive)
- GI50 (RPMI-8226): 223 µM (inactive)
- GI50 (NCI-H226): > 625 µM (inactive)
- GI50 (SN12C): 227 µM (inactive)
- GI50 (RXF 393): > 206 µM (inactive)
- GI50 (HCT-116): > 172 µM (inactive)
- GI50 (KM12): 187 µM (inactive)
- GI50 (TK-10): 175 µM (inactive)
- GI50 (OVCAR-5): 245 µM (inactive)
- GI50 (HCT-15): 56.2 µM
- GI50 (DU-145): 212 µM (inactive)
- GI50 (HOP-92): 403 µM (inactive)
- GI50 (HOP-62): 104 µM (inactive)
- GI50 (LOX IMVI): 232 µM (inactive)
- GI50 (SR): 28.5 µM (inactive)
- GI50 (SK-MEL-5): > 625 µM (inactive)
- GI50 (MDA-MB-435): 44.3 µM (inactive)
- GI50 (U-251): 195 µM (inactive)
- GI50 (Malme-3M): 93.8 µM (inactive)
- GI50 (SF-539): 165 µM (inactive)
- GI50 (A498): 91.8 µM (inactive)
- GI50 (HL-60): 3.83 µM (inactive)
- GI50 (HT-29): 204 µM (inactive)
- GI50 (UACC-257): 369 µM (inactive)
- GI50 (SF-268): 191 µM (inactive)
- GI50 (OVCAR-4): > 625 µM (inactive)
- GI50 (SNB-75): 430 µM (inactive)
- GI50 (OVCAR-8): 55.5 µM (inactive)
- GI50 (SNB-19): 18.2 µM (inactive)
- GI50 (SF-295): 530 µM (inactive)
- GI50 (NCI-H23): 29.9 µM (inactive)
- GI50 (CAKI-1): 185 µM (inactive)
- GI50 (IGROV-1): 310 µM (inactive)
- GI50 (Hs-578T): 532 µM (inactive)
- GI50 (BT-549): 161 µM (inactive)
- GI50 (EKVX): 429 µM (inactive)
- GI50 (MCF7): 24 µM (inactive)
- GI50 (HCC 2998): 46.7 µM (inactive)
- GI50 (PC-3): 182 µM (inactive)
- GI50 (NCI-H522): 37.6 µM (inactive)
- GI50 (SK-MEL-2): 76.7 µM (inactive)
- GI50 (SK-OV-3): > 625 µM (inactive)
- GI50 (COLO 205): 160 µM (inactive)
- GI50 (MDA-MB-231): 195 µM (inactive)
- GI50 (SK-MEL-28): 416 µM (inactive)
- GI50 (NCI-H460): 235 µM (inactive)
- GI50 (M14): 26.1 µM (inactive)
- GI50 (786-0): 118 µM (inactive)
- GI50 (MDA-N): 93.1 µM (inactive)
- GI50 (A549): 219 µM (inactive)
- GI50 (NCI/ADR-RES): 200 µM (inactive)
- GI50 (CCRF-CEM): 0.444 µM (active)
- GI50 (MOLT-4): 2.3 µM (inactive)
